Patent US9125913B2, “Bcl-2-selective apoptosis-inducing agents for the treatment of cancer and immune diseases” (AbbVie Inc., priority 2008, dated 2015)

How the values were obtained:
FL5.12/Bcl-2 cells = assay: FL5.12/Bcl-2 cell viability assay; assay type: cell-based, murine; conditions: ratio of canine platelet EC50 to FL5.12/Bcl-2 EC50
Text: FL5.12 is an IL-3 dependent prolymphocytic murine cell line that undergoes apoptosis upon IL-3 withdrawal as a result of the upregulation of pro-apoptotic Bcl-2 proteins such as Bim and Puma. Stable overexpression of anti-apoptotic Bcl-2 protein (FL5.12/Bcl-2) protects against apoptosis induced by IL-3 withdrawal by sequestration of Bim and Puma. […] The ability of compounds to kill FL5.12/Bcl-2 cells upon IL-3 withdrawal is a direct measure of the compounds' ability to inhibit anti-apoptotic Bcl-2 protein function.
Wild type FL5.12/Bcl-2 overexpressing stable transfectants were cultured in RPMI-1640 supplemented with 2 mM L-glutamine, 10% FBS, 1 mM sodium pyruvate, 2 mM HEPES, 1% penicillin/streptomycin (Invitrogen), 57 μM β-ME, and 10% WEHI-3B conditioned medium (source of IL-3) and maintained at 37° C. containing 5% CO2. 1×10^6 cells/ml were washed 1×PBS and resuspended in medium not supplemented with 10% WEHI-3B for 48 hrs prior to cytotoxicity assays. Cells were then treated for an additional 24 hrs in the presence of various concentrations of the indicated compounds. Cell viability was assessed by CellTitre Glo assay (Promega Corp.) according to the manufacturer's recommendations.

GST-Bcl-2 = assay: TR-FRET binding assay, Bcl-2; conditions: TR-FRET Ki values
How it was run: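 Ki values come from Wang's competitive-binding equation applied to TR-FRET signal (excitation 340/35 nm; emission 520/525 nm F-Bak peptide, 495/510 nm Tb antibody). Protein, probe and antibody incubated with compound 3 h at room temperature; dilution series began at 50 μM as 2× stock in 10% DMSO.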

Structure (SMILES) | Selectivity Ratio (Platelet EC50/FL5.12/Bcl-2 EC50) (FL5.12/Bcl-2 cells) | Binding selectivity ratio (Bcl-XL Ki/Bcl-2 Ki) (GST-Bcl-2)
CC1(C)CCC(CN2CCN(c3ccc(C(=O)NS(=O)(=O)c4ccc(NCCCN5CCOCC5)c([N+](=O)[O-])c4)c(Oc4cccc5[nH]ccc45)c3)CC2)=C(c2ccc(Cl)cc2)C1 [Example 55, 4-(4-{[2-(4-chlorophenyl)-4,4-dimethylcyclohex-1-en-1-yl]methyl}piperazin-1-yl)-2-(1H-indol-4-yloxy)-N-({4-[(3-morpholin-4-ylpropyl)amino]-3-nitrophenyl}sulfonyl)benzamide] | 1614 | 126.9
CC1(C)CCC(CN2CCN(c3ccc(C(=O)NS(=O)(=O)c4ccc(NCCCN5CCOCC5)c([N+](=O)[O-])c4)c(Oc4ccccc4)c3)CC2)=C(c2ccc(Cl)cc2)C1 [Example 18, 4-(4-{[2-(4-chlorophenyl)-4,4-dimethylcyclohex-1-en-1-yl]methyl}piperazin-1-yl)-N-({4-[(3-morpholin-4-ylpropyl)amino]-3-nitrophenyl}sulfonyl)-2-phenoxybenzamide] | 241 | 34.2
CC1(C)CCC(CN2CCN(c3ccc(C(=O)NS(=O)(=O)c4ccc(NC5CCN(C6CCOCC6)CC5)c([N+](=O)[O-])c4)c(Oc4ccc5[nH]ccc5c4)c3)CC2)=C(c2ccc(Cl)cc2)C1 [Example 173, 4-(4-{[2-(4-chlorophenyl)-4,4-dimethylcyclohex-1-en-1-yl]methyl}piperazin-1-yl)-2-(1H-indol-5-yloxy)-N-({3-nitro-4-[(1-tetrahydro-2H-pyran-4-ylpiperidin-4-yl)amino]phenyl}sulfonyl)benzamide] | >4587 | 204.6
CN(C)CCCNc1ccc(S(=O)(=O)NC(=O)c2ccc(N3CCN(CC4=C(c5ccc(Cl)cc5)CC(C)(C)CC4)CC3)cc2Oc2ccc3[nH]ccc3c2)cc1C(F)(F)F [Example 171, 4-(4-{[2-(4-chlorophenyl)-4,4-dimethylcyclohex-1-en-1-yl]methyl}piperazin-1-yl)-N-{[4-{[3-(dimethylamino)propyl]amino}-3-(trifluoromethyl)phenyl]sulfonyl}-2-(1H-indol-5-yloxy)benzamide] | >181 | 17.7
CN1CCC(Nc2ccc(S(=O)(=O)NC(=O)c3ccc(N4CCN(CC5=C(c6ccc(Cl)cc6)CC(C)(C)CC5)CC4)cc3Oc3ccc4[nH]ccc4c3)cc2[N+](=O)[O-])CC1 [Example 98, 4-(4-{[2-(4-chlorophenyl)-4,4-dimethylcyclohex-1-en-1-yl]methyl}piperazin-1-yl)-2-(1H-indol-5-yloxy)-N-({4-[(1-methylpiperidin-4-yl)amino]-3-nitrophenyl}sulfonyl)benzamide] | 4849 | >50769.2
CN(C)CCCOc1ccc(S(=O)(=O)NC(=O)c2ccc(N3CCN(Cc4ccccc4-c4ccc(Cl)cc4)CC3)cc2Oc2ccccc2)cc1[N+](=O)[O-] [Example 94, 4-{4-[(4′-chloro-1,1′-biphenyl-2-yl)methyl]piperazin-1-yl}-N-({4-[3-(dimethylamino)propoxy]-3-nitrophenyl}sulfonyl)-2-phenoxybenzamide] | 590 | 33.1
O=C(NS(=O)(=O)c1ccc(NCC2CCOCC2)c([N+](=O)[O-])c1)c1ccc(N2CCN(Cc3cc(OCCN4CCOCC4)ccc3-c3ccc(Cl)cc3)CC2)cc1Oc1cccc2[nH]ccc12 [Example 130, 4-(4-{[4′-chloro-4-(2-morpholin-4-ylethoxy)-1,1′-biphenyl-2-yl]methyl}piperazin-1-yl)-2-(1H-indol-4-yloxy)-N-({3-nitro-4-[(tetrahydro-2H-pyran-4-ylmethyl)amino]phenyl}sulfonyl)benzamide] | >254 | >4714.3
CN(C)CCOc1ccc(-c2ccc(Cl)cc2)c(CN2CCN(c3ccc(C(=O)NS(=O)(=O)c4ccc(NC5CCN(CC(F)(F)F)CC5)c([N+](=O)[O-])c4)c(Oc4ccccc4)c3)CC2)c1 [Example 137, 4-[4-({4′-chloro-4-[2-(dimethylamino)ethoxy]-1,1′-biphenyl-2-yl}methyl)piperazin-1-yl]-N-[(3-nitro-4-{[1-(2,2,2-trifluoroethyl)piperidin-4-yl]amino}phenyl)sulfonyl]-2-phenoxybenzamide] | >178 | 52.4
CC(C)N(CCOc1ccc(-c2ccc(Cl)cc2)c(CN2CCN(c3ccc(C(=O)NS(=O)(=O)c4ccc(NCC5CCOCC5)c([N+](=O)[O-])c4)c(Oc4ccccc4)c3)CC2)c1)C(C)C [Example 139, 4-[4-({4′-chloro-4-[2-(diisopropylamino)ethoxy]-1,1′-biphenyl-2-yl}methyl)piperazin-1-yl]-N-({3-nitro-4-[(tetrahydro-2H-pyran-4-ylmethyl)amino]phenyl}sulfonyl)-2-phenoxybenzamide] | 841 | 103.1
CN(C)CCOc1ccc(-c2ccc(Cl)cc2)c(CN2CCN(c3ccc(C(=O)NS(=O)(=O)c4ccc(NC5CCN(C)CC5)c([N+](=O)[O-])c4)c(Oc4ccccc4)c3)CC2)c1 [Example 133, 4-[4-({4′-chloro-4-[2-(dimethylamino)ethoxy]-1,1′-biphenyl-2-yl}methyl)piperazin-1-yl]-N-({4-[(1-methylpiperidin-4-yl)amino]-3-nitrophenyl}sulfonyl)-2-phenoxybenzamide] | 5 | 31.2
CN1CCC(Nc2ccc(S(=O)(=O)NC(=O)c3ccc(N4CCN(CC5=C(c6ccc(Cl)cc6)CCCCC5)CC4)cc3Oc3ccc4[nH]ccc4c3)cc2[N+](=O)[O-])CC1 [Example 151, 4-(4-{[2-(4-chlorophenyl)cyclohept-1-en-1-yl]methyl}piperazin-1-yl)-2-(1H-indol-5-yloxy)-N-({4-[(1-methylpiperidin-4-yl)amino]-3-nitrophenyl}sulfonyl)benzamide] | 642 | >4074.1
CN1CCN(CCCNc2ccc(S(=O)(=O)NC(=O)c3ccc(N4CCN(CC5=C(c6ccc(Cl)cc6)CC(C)(C)CC5)CC4)cc3Oc3ccc4[nH]ccc4c3)cc2[N+](=O)[O-])CC1 [Example 96, 4-(4-{[2-(4-chlorophenyl)-4,4-dimethylcyclohex-1-en-1-yl]methyl}piperazin-1-yl)-2-(1H-indol-5-yloxy)-N-[(4-{[3-(4-methylpiperazin-1-yl)propyl]amino}-3-nitrophenyl)sulfonyl]benzamide] | 2043 | 186.8
O=C(NS(=O)(=O)c1ccc(NCC2CCOCC2)c([N+](=O)[O-])c1)c1ccc(N2CCN(Cc3cc(CCN4CCCC4)ccc3-c3ccc(Cl)cc3)CC2)cc1Oc1cccc2[nH]ccc12 [Example 25, 4-(4-{[4′-chloro-4-(2-pyrrolidin-1-ylethyl)-1,1′-biphenyl-2-yl]methyl}piperazin-1-yl)-2-(1H-indol-4-yloxy)-N-({3-nitro-4-[(tetrahydro-2H-pyran-4-ylmethyl)amino]phenyl}sulfonyl)benzamide] | >1020 | 4103.8
CN(C)CCCNc1ccc(S(=O)(=O)NC(=O)c2ccc(N3CCN(CC4=C(c5ccc(Cl)cc5)CC(C)(C)CC4)CC3)cc2Oc2ccc3[nH]ccc3c2)cc1S(=O)(=O)C(F)(F)F [Example 170, 4-(4-{[2-(4-chlorophenyl)-4,4-dimethylcyclohex-1-en-1-yl]methyl}piperazin-1-yl)-N-({4-{[3-(dimethylamino)propyl]amino}-3-[(trifluoromethyl)sulfonyl]phenyl}sulfonyl)-2-(1H-indol-5-yloxy)benzamide] | 507 | 30.2
CC1(C)CCC(CN2CCN(c3ccc(C(=O)NS(=O)(=O)c4ccc(NCCCN5CCCC5)c([N+](=O)[O-])c4)c(Oc4ccc5[nH]ccc5c4)c3)CC2)=C(c2ccc(Cl)cc2)C1 [Example 97, 4-(4-{[2-(4-chlorophenyl)-4,4-dimethylcyclohex-1-en-1-yl]methyl}piperazin-1-yl)-2-(1H-indol-5-yloxy)-N-({3-nitro-4-[(3-pyrrolidin-1-ylpropyl)amino]phenyl}sulfonyl)benzamide] | 1052 | 96.7
CN(C)CCOc1cccc(-c2ccc(Cl)cc2)c1CN1CCN(c2ccc(C(=O)NS(=O)(=O)c3ccc(NCCCN4CCCC4)c([N+](=O)[O-])c3)c(Oc3ccccc3)c2)CC1 [Example 123, 4-[4-({4′-chloro-3-[2-(dimethylamino)ethoxy]-1,1′-biphenyl-2-yl}methyl)piperazin-1-yl]-N-({3-nitro-4-[(3-pyrrolidin-1-ylpropyl)amino]phenyl}sulfonyl)-2-phenoxybenzamide] | 32 | 91.5
